These results are taken from ChEMBL document CHEMBL1201862, “PubChem BioAssay data set” (2004).

Among the test systems are HCT-15; OVCAR-8; NCI-H23; SW-620; RXF 393; MOLT-4; HCT-116; IGROV-1; LOX IMVI; SF-268; UO-31; KM12; ACHN; SK-MEL-28; SNB-75; SNB-19; SK-MEL-5; CAKI-1.
Common to all, as to assay: DTP human tumour cell line panel, 48 h

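Grown in 96-well plates, cells were treated for 48 hours with each compound at five concentrations. Insufficient inhibition: endpoint recorded as highest concentration tested. GI50 is the concentration that inhibits growth by half.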 Activity calls are given as the source filed them. No stated cut-off is given here; in the data, active = GI50 up to about 1.1 µM and inactive = higher.

For the compound `O=c1c2ccccc2[nH]c(=S)n1-c1ccc(Br)cc1`, the concentration for 50% growth inhibition (GI50) (in general, the concentration that inhibits growth by half) with HCT-15 was 71.9 µM; in the test on OVCAR-8 it was 95.5 µM (inactive); in the test on NCI-H23 it was 51.9 µM (inactive); in the test on SW-620, 87.1 µM (inactive); in the test with RXF 393, > 100 µM (inactive); with MOLT-4 it was 76 µM (inactive). Further, the GI50 in the test with HCT-116 is 68.4 µM (inactive); in the test with IGROV-1 it was 71.4 µM (inactive); with LOX IMVI it was 48.5 µM (inactive); with SF-268, 90.8 µM (inactive); in the test with UO-31 it was 92.5 µM (inactive); in the test on KM12, > 100 µM (inactive). Moreover, the GI50 with ACHN was 42.5 µM (inactive); in the test on SK-MEL-28, > 100 µM (inactive); with SNB-75, 30.7 µM (inactive); in the test on SNB-19 it was > 100 µM (inactive).

Consider `O=c1c2cccnc2ncn1CCCN1CCOCC1`, for which the GI50 was > 100 µM (inactive) with OVCAR-8; > 100 µM (inactive) in the test with NCI-H23; > 100 µM (inactive) in the test on SW-620; > 100 µM (inactive) with RXF 393; > 10 µM (inactive) in the test on MOLT-4; > 100 µM (inactive) with HCT-116. The GI50 in the test with SK-MEL-5, in the test with CAKI-1, in the test on IGROV-1, in the test with LOX IMVI, in the test on SF-268 and with UO-31 was > 100 µM (inactive) each time. Further, the GI50 with KM12, in the test with ACHN, in the test on SK-MEL-28, with SNB-75 and with SNB-19 was > 100 µM (inactive) throughout.

On to `Cn1c(=O)oc2cc(C3CCC(=O)N3Cc3csc(-c4ccccc4)n3)ccc21` (stereo not drawn), for which the 50% growth inhibitory concentration (GI50) was more than 100 µM with HCT-15; > 100 µM (inactive) in the test with OVCAR-8; > 100 µM (inactive) in the test on NCI-H23; > 100 µM (inactive) in the test on SW-620; 39.9 µM (inactive) in the test with RXF 393; 58.2 µM (inactive) in the test with MOLT-4. For the same compound, the GI50 in the test on HCT-116, in the test on SK-MEL-5, in the test with CAKI-1, in the test with IGROV-1, with LOX IMVI and in the test on SF-268 was > 100 µM (inactive) throughout. Moreover, the GI50 in the test with UO-31 was 52.5 µM (inactive); with KM12 it was 76.2 µM (inactive); in the test with ACHN, > 100 µM (inactive); in the test on SK-MEL-28 it was > 100 µM (inactive); in the test on SNB-75, 25.3 µM (inactive); in the test on SNB-19 it was > 100 µM (inactive).

Take `Cc1c(C2Cc3ccccc3N2)c2ccccc2n1C` (stereo not drawn): the 50% growth inhibitory concentration (GI50) in the test on HCT-15 is 36.3 µM; with OVCAR-8, > 100 µM (inactive); with NCI-H23, > 100 µM (inactive); in the test on SW-620, > 100 µM (inactive); in the test on RXF 393, > 100 µM (inactive); in the test on MOLT-4, > 100 µM (inactive). Moreover, the GI50 in the test on HCT-116, with SK-MEL-5, in the test with CAKI-1, in the test on IGROV-1, in the test with LOX IMVI and in the test on SF-268 was > 100 µM (inactive) throughout. For the same compound, the GI50 in the test with UO-31, with KM12, in the test with ACHN, in the test with SNB-75 and in the test with SNB-19 was > 100 µM (inactive) each time.

In the case of `O=C1NC2OC(CO)C(O)C(O1)C2O` (stereo not drawn), the 50% growth inhibitory concentration (GI50) in the test on HCT-15 was more than 100 µM; with OVCAR-8, > 100 µM (inactive); with NCI-H23 it was > 100 µM (inactive); in the test with SW-620, > 100 µM (inactive); with RXF 393, > 100 µM (inactive); with MOLT-4, > 100 µM (inactive). In addition, the GI50 in the test on SK-MEL-5, in the test on CAKI-1, with IGROV-1, with LOX IMVI, with SF-268 and with UO-31 was > 100 µM (inactive) each time. The GI50 in the test with KM12, in the test on ACHN, in the test on SK-MEL-28, with SNB-75 and with SNB-19 was > 100 µM (inactive) throughout.

For `Cc1ccccc1/N=N/c1ccc(/N=N/c2c(O)ccc3cc(S(=O)(=O)O)cc(S(=O)(=O)O)c23)c(C)c1`, the GI50 in the test on HCT-15 is more than 100 µM; in the test with OVCAR-8, > 100 µM (inactive); in the test with NCI-H23 it was > 100 µM (inactive); in the test on SW-620, > 100 µM (inactive); in the test with RXF 393, > 100 µM (inactive); with MOLT-4, > 100 µM (inactive). Moreover, the GI50 with HCT-116, in the test on SK-MEL-5, with CAKI-1, in the test on IGROV-1, in the test on SF-268 and in the test with UO-31 was > 100 µM (inactive) in each case. Besides, the GI50 in the test with KM12, in the test on ACHN, in the test on SK-MEL-28, with SNB-75 and with SNB-19 was > 100 µM (inactive) in each case.

Take `O=C1CCC(=O)N2CCCCN12`: the concentration for 50% growth inhibition (GI50) is more than 100 µM in the test on HCT-15; > 100 µM (inactive) in the test on OVCAR-8; > 100 µM (inactive) in the test on NCI-H23; > 100 µM (inactive) in the test with SW-620; > 100 µM (inactive) in the test with RXF 393; > 100 µM (inactive) in the test on MOLT-4. Moreover, the GI50 in the test on HCT-116, with SK-MEL-5, in the test on CAKI-1, in the test with IGROV-1, in the test with LOX IMVI and in the test with SF-268 was > 100 µM (inactive) each time. The GI50 with UO-31, with KM12, with ACHN, in the test on SK-MEL-28, in the test with SNB-75 and with SNB-19 was > 100 µM (inactive) throughout.

With `CCOC(=O)Cc1csc(Nc2ccccc2[N+](=O)[O-])n1`, the GI50 with HCT-15 was more than 56.6 µM; with OVCAR-8, > 100 µM (inactive); with NCI-H23 it was > 100 µM (inactive); in the test on SW-620 it was > 57.5 µM (inactive); in the test with RXF 393, > 100 µM (inactive); in the test on MOLT-4 it was > 100 µM (inactive). Moreover, the GI50 with HCT-116 is > 76.4 µM (inactive); in the test with SK-MEL-5, > 100 µM (inactive); in the test on CAKI-1, > 100 µM (inactive); in the test with IGROV-1, > 100 µM (inactive); in the test with LOX IMVI, > 46.7 µM (inactive); in the test with SF-268, > 100 µM (inactive). Moreover, the GI50 with UO-31, in the test on KM12, in the test with ACHN, in the test on SK-MEL-28, with SNB-75 and with SNB-19 was > 100 µM (inactive) each time.

Regarding `CCCc1n[nH]c(CCC(=O)N(Cc2ccccc2)Cc2ccccc2)c1CC`, the concentration for 50% growth inhibition (GI50) is more than 100 µM in the test with HCT-15; > 100 µM (inactive) with OVCAR-8; > 100 µM (inactive) with NCI-H23; > 100 µM (inactive) in the test with SW-620; > 100 µM (inactive) in the test with RXF 393; > 100 µM (inactive) with MOLT-4. Besides, the GI50 in the test with SK-MEL-5, in the test with CAKI-1, in the test with IGROV-1, in the test on LOX IMVI, with SF-268 and with UO-31 was > 100 µM (inactive) each time. Also, the GI50 with KM12, with ACHN, in the test on SK-MEL-28, in the test on SNB-75 and in the test with SNB-19 was > 100 µM (inactive) each time.

Take `CC(=O)O[C@H]1CC[C@@]2(C)C(=CC[C@H]3C(CC#N)[C@@](C)(C#N)CCC32)C1` (stereo partly drawn): the GI50 was more than 100 µM with HCT-15; > 100 µM (inactive) in the test with OVCAR-8; > 100 µM (inactive) with NCI-H23; > 100 µM (inactive) with SW-620; > 100 µM (inactive) with RXF 393; > 100 µM (inactive) with MOLT-4. The GI50 with HCT-116, in the test on SK-MEL-5, in the test on IGROV-1, in the test on LOX IMVI, in the test on SF-268 and in the test on UO-31 was > 100 µM (inactive) each time. Besides, the GI50 with KM12 is > 100 µM (inactive); in the test on ACHN, > 100 µM (inactive); in the test with SK-MEL-28, > 100 µM (inactive); with SNB-75, 69.8 µM (inactive); with SNB-19, > 100 µM (inactive).

For `Cc1ccc2c(c1)SC(c1cc3c(cc1Br)OCO3)S2` (stereo not drawn), the 50% growth inhibitory concentration (GI50) is 25.4 µM with HCT-15; > 31.6 µM (inactive) in the test with OVCAR-8; > 31.6 µM (inactive) in the test with NCI-H23; 86.1 µM (inactive) in the test on SW-620; 12.3 µM (inactive) with RXF 393; 31.4 µM (inactive) in the test with MOLT-4. Besides, the GI50 was 23.9 µM (inactive) in the test on HCT-116; > 31.6 µM (inactive) in the test with SK-MEL-5; > 76 µM (inactive) in the test on CAKI-1; > 31.6 µM (inactive) with IGROV-1; > 31.6 µM (inactive) in the test on LOX IMVI; > 31.6 µM (inactive) in the test on SF-268. Further, the GI50 in the test with UO-31 was 19.7 µM (inactive); with KM12, 26.7 µM (inactive); in the test on ACHN, > 31.6 µM (inactive); in the test with SK-MEL-28 it was > 31.6 µM (inactive); in the test with SNB-75, 0.516 µM (active); in the test on SNB-19, > 100 µM (inactive).

Consider `COC(=O)C1C(C(=O)OC)C2(OC)c3ccccc3-c3ccccc3C12` (stereo not drawn), for which the GI50 is 28.4 µM in the test on HCT-15; 49.7 µM (inactive) with OVCAR-8; 27.6 µM (inactive) in the test on NCI-H23; 48.1 µM (inactive) with SW-620; 40.9 µM (inactive) with RXF 393; 12.1 µM (inactive) in the test on MOLT-4. The GI50 is 35.4 µM (inactive) in the test with HCT-116; 18.7 µM (inactive) in the test on SK-MEL-5; 40.1 µM (inactive) in the test with CAKI-1; 35 µM (inactive) with IGROV-1; 25.6 µM (inactive) with LOX IMVI; 45.1 µM (inactive) in the test on SF-268. In addition, the GI50 with UO-31 was 31 µM (inactive); in the test with KM12, 35.6 µM (inactive); in the test with ACHN, 37.9 µM (inactive); with SK-MEL-28, 90.2 µM (inactive); in the test on SNB-75 it was 38.4 µM (inactive); with SNB-19, 60 µM (inactive).
